Assay results: patent US9399649B2, “Compounds for treating spinal muscular atrophy” (PTC Therapeutics Inc., priority 2012, dated 2016)

Tested on: full length and Δ7 SMN2 mRNA
Test: Endogenous SMN2 mRNA end-point semi-quantitative RT-PCR splicing assay in animal tissues
Assay type: in vivo
Conditions: C/C-allele SMA mice, brain and muscle, oral BID for 10 days, FIG. 7
Experimental: The endpoint reverse transcription-PCR (RT-PCR) splicing assay is used to quantify the levels of the full length and Δ7 SMN2 mRNA in tissues from mice treated with test compound.
C/C-allele SMA mice are treated by oral gavage BID for 10 days with test compounds in 0.5% HPMC and 0.1% Tween-80. Tissue samples are collected and snap frozen for RNA purification.
Tissue samples (20-40 mg) are homogenized in QIAzol Lysis Reagent for 2 minutes at 20 Hz in the TissueLyser II using one stainless steel bead. After addition of chloroform, the homogenate is separated into aqueous and organic phases by centrifugation. RNA partitioned to the upper, aqueous phase is extracted and ethanol is added to provide appropriate binding conditions. The sample is then applied to the RNeasy spin column from the RNeasy Mini Kit, where total RNA binds to the membrane. The RNA is eluted in RNase-free water then stored at −20° C.
SMN2 spliced products are identified using the following amplification primers in Table 8. These primers hybridize to a nucleotide sequence in exon 6 (SMN Forward D, SEQ ID NO. 13) (nucleotide 22 to nucleotide 46) and exon 8 (SMN Reverse C, SEQ ID NO. 12), common to human SMN1 and SMN2 mRNA. […]

Cc1cn2cc(-c3cc4ccc(N5CCN(C)CC5)cc4c(=O)o3)nc2c(C)n1 [Cpd 65, 3-(6,8-dimethylimidazo[1,2-a]pyrazin-2-yl)-7-(4-methylpiperazin-1-yl)-1H-isochromen-1-one]
SMN2 FL mRNA in tissues (gel band): progressively more SMN2 FL mRNA
SMN2 Δ7 mRNA in tissues (gel band): less SMN2 Δ7 mRNA
